Test results reported in publication PMC10825133, “Repurposing proteasome inhibitors for improved treatment of triple-negative breast cancer” (Cell Death Discovery, 2024).
Read-outs that look alike come from different tables or passages of the source.

Key:
Assay in all cases: Resazurin-based cell viability assay, monotherapy drug screen
[1] = tested on: MDA-MB-468 cells; parameters: species or system human; AUC: scale not given here; conditions: MDA-MB-468; for IC50: Homo sapiens; for AUC: area under the dose response curve, 24 h
Experimental: (§1) Eighteen pharmaceutical compounds were purchased from Selleckchem. […] The stock solutions were stored at -80°C. […] New drug plates were prepared for each drug screen.
(§2) To determine the optimal seeding density and ensure that the cells were in the exponential phase during the duration of the experiment (approx. 52h), each cell line (BT-549, CAL-148, HCC1806, HCC38, HCC70, MCF-10A, MCF-7, MDA-MB-436, MDA-MB-453, and MDA-MB-468) was seeded at different concentrations (1000 to 16000 cells) per 96-well, as previously described. Cell viability was measured daily (day 0 [plating day] to day 4) using 0.2 mg/ml resazurin solution prepared from resazurin sodium salt (Fisher Scientific) dissolved in sterile 1xPBS (ThermoFisher Scientific). Before use, the resazurin solution was brought to RT before 10 µl (10% of cell medium volume) was added to each 96-well and incubated for 4h at 37°C. The absorbance was measured with a 560 nm excitation filter and a 615 nm emission filter in a Wallac 1420 VICTOR2™ microplate reader (Perkin Elmer). The slope of the curve was used to determine the optimal seeding density, i.e., the highest seeding density with linear growth between days 1 and 3.

[2] = tested on: MDA-MB-436 cells; parameters: species or system human; AUC: scale not given here; conditions: MDA-MB-436; for IC50: Homo sapiens, growth rate inhibition concentration at GR(c) = 0.5, 24 h, read-out: GR50 (the source's name); for AUC: area under the dose response curve, 24 h; for GRmax: drug efficacy at highest tested dose (<0 cytotoxic, 0 cytostatic, >0 partial growth inhibition)
Experimental: as §1, §2

[3] = tested on: HCC1806 cells; parameters: species or system human; AUC: scale not given here; conditions: HCC1806; for AUC: area under the dose response curve, 24 h; for GRmax: drug efficacy at highest tested dose (<0 cytotoxic, 0 cytostatic, >0 partial growth inhibition); for IC50: Homo sapiens
Experimental: as §1, §2

[4] = tested on: HCC70 cells; parameters: species or system human; AUC: scale not given here; conditions: HCC70; for AUC: area under the dose response curve, 24 h; for GRmax: drug efficacy at highest tested dose (<0 cytotoxic, 0 cytostatic, >0 partial growth inhibition); for IC50: Homo sapiens
Experimental: as §1, §2

[5] = tested on: BT-549 cells; parameters: species or system human; AUC: scale not given here; conditions: BT-549; for AUC: area under the dose response curve, 24 h; for GRmax: drug efficacy at highest tested dose (<0 cytotoxic, 0 cytostatic, >0 partial growth inhibition)
Experimental: as §1, §2

[6] = tested on: MCF-7 cells; parameters: species or system human; AUC: scale not given here; conditions: MCF-7; for IC50: Homo sapiens, MCF7, growth rate inhibition concentration at GR(c) = 0.5, 24 h, read-out: GR50 (the source's name); for AUC: area under the dose response curve, 24 h; for GRmax: drug efficacy at highest tested dose (<0 cytotoxic, 0 cytostatic, >0 partial growth inhibition)
Experimental: as §1, §2

[7] = tested on: MCF-10A cells; parameters: species or system human; AUC: scale not given here; conditions: for IC50: Homo sapiens; for AUC: area under the dose response curve, 24 h
Experimental: as §1, §2

[8] = tested on: CAL-148 cells; parameters: species or system human; AUC: unit not given beside the values; conditions: CAL-148; for AUC: area under the dose response curve, 24 h; for GRmax: drug efficacy at highest tested dose (<0 cytotoxic, 0 cytostatic, >0 partial growth inhibition); for IC50: Homo sapiens, growth rate inhibition concentration at GR(c) = 0.5, 24 h, read-out: GR50 (the source's name)
Experimental: Eighteen pharmaceutical compounds were purchased from Selleckchem (Supplementary Table 2). Stock solutions were prepared using dimethyl sulfoxide (DMSO; Merck), physiological saline (sodium chloride 0.9%) or Milli-Q water, and stored at −80 °C. […] Matched concentration solvent vehicle controls were used for each drug concentration. The drug screens were performed in triplicate and repeated three (monotherapy) or two (combination therapy) times (Fig. 7).
The optimal seeding density per 96-well was determined for each cell line as previously described. The cells were seeded at a density of 4.0 × 10^3 to 7.5 × 10^3 (cell type dependent) in 96-well clear, flat-bottom microplates (Corning Life Sciences, Sigma-Aldrich) in 100 µl complete culture medium (Supplementary Table 1) and cultured for 24 h. Cell viability was determined using the resazurin assay in untreated cells at the time of plating (t = 0) and treated cells after 24 h drug treatment (Fig. 7). Percentage cell viability was calculated as 100% × (absorbance of treated cells – absorbance of background controls) / (absorbance of matched solvent vehicle controls – absorbance of background controls). The area under the curve (AUC), half-maximal inhibitory concentration (IC50), drug potency (GR50), and drug efficacy (GRmax) were determined for each compound using the GRmetrics (version 1.20.0) package in R. The monotherapy data were evaluated with the IDACombo (version 1.0.2) package in R to predict potential drug combinations (Table 1). SynergyFinder (version 3.2.10) package in R was used to identify synergistic drug combinations.
Eighteen pharmaceutical compounds were purchased from Selleckchem. […] The solubility of the compound was enhanced by pre-heating the solvent (lukewarm), if necessary. […] The stock solutions were stored at -80°C. […] Matched concentration solvent vehicle controls were used for each drug concentration. The drug screens were performed in triplicate and repeated three times for the monotherapies and twice for the combination treatments. The drug(s) and corresponding controls were plated in 96-well PCR plates (VWR) and stored at -20°C (Fig. 6). The drug plates were thawed, centrifuged (3000 rpm for 30s), and acclimatized to RT before the drugs were added to the cells. New drug plates were prepared for each drug screen.
Cell viability was measured daily (day 0 [plating day] to day 4) using 0.2 mg/ml resazurin solution prepared from resazurin sodium salt (Fisher Scientific) dissolved in sterile 1xPBS (ThermoFisher Scientific). Before use, the resazurin solution was brought to RT before 10 µl (10% of cell medium volume) was added to each 96-well and incubated for 4h at 37°C. […] The slope of the curve was used to determine the optimal seeding density, i.e., the highest seeding density with linear growth between days 1 and 3.
The cells were seeded at a density of 4.0x10^3 to 7.5x10^3 (cell type-dependent) in 96-well clear, flat-bottom microplates (Corning Life Sciences, Sigma-Aldrich) in 100 µl culture medium supplemented with 10% FBS and cultured for 24h. Cell viability was determined using the resazurin assay after 24h drug treatment (Fig. 6). Percentage cell viability was calculated as 100% × (absorbance of treated cells – absorbance of background controls) / (absorbance of matched solvent vehicle controls – absorbance of background controls). Normalized growth rate inhibition (GR) was assessed using the absorbance of untreated cells after the time of plating (t = 0). […] For combination treatment, the monotherapy data were evaluated with the IDACombo (version 1.0.2)[20] package in R to predict potential drug combinations (Table 1). SynergyFinder (version 3.2.10)[21] package in R was used to identify synergistic drug combinations.

[9] = 24 h drug treatment, read-out: IC50
[10] = growth rate inhibition concentration at GR(c) = 0.5, 24 h, read-out: GR50 (the source's name)

Row | Compound | IC50 [1, 10] [nM] | AUC [1] | IC50 [2] [nM] | AUC [2] | GRmax [2] | AUC [3] | GRmax [3] | IC50 [3, 10] [nM] | AUC [4] | GRmax [4] | IC50 [4, 10] [nM] | AUC [5] | GRmax [5] | IC50 [6] [nM] | AUC [6] | GRmax [6] | IC50 [7, 9] [nM] | IC50 [7, 10] [nM] | AUC [7] | AUC [8] | further results
1 | COC[C@H](NC(=O)c1cnc(C)s1)C(=O)N[C@@H](COC)C(=O)N[C@@H](Cc1ccccc1)C(=O)[C@@]1(C)CO1 [Oprozomib] | 390 | 0.76 | 75 | 0.84 | −0.93 | 0.85 | 0.42 | 6000 | 0.89 | −0.10 | 3700 | 0.81 | 0.38 | 270 | 0.88 | −0.45 | 2000 | 360 | 0.79 | 0.90 | IC50 [1, 9]: 3200 nM; IC50 [3, 9]: 6000 nM; IC50 [4, 9]: 7600 nM; IC50 ([5]; Homo sapiens, growth rate inhibition concentration at GR(c) = 0.5, 24 h, read-out: GR50 (the source's name)): 940 nM; GRmax [8]: 0.14; IC50 [8]: 1100 nM
2 | CC(=O)O[C@H]1C(=O)[C@@]2(C)[C@H]([C@H](OC(=O)c3ccccc3)[C@]3(O)C[C@H](OC(=O)[C@H](O)[C@@H](NC(=O)c4ccccc4)c4ccccc4)C(C)=C1C3(C)C)[C@]1(OC(C)=O)CO[C@@H]1C[C@@H]2O [Paclitaxel] | 1400 | 0.81 | 55 | 0.78 | −0.97 | 0.72 | 0.51 | 840 | 0.86 | 0.46 | 380 | 0.87 | 0.58 | 41 | 0.79 | −0.56 | 860 | 98 | 0.73 | 0.92 | GRmax [8]: 0.51; IC50 [8]: 1100 nM
